Our source for the selectivity ratio and IC50 values is ChEMBL document CHEMBL4190368, “Synthesis and antimalarial evaluation of artesunate-polyamine and trioxolane-polyamine conjugates” (Eur J Med Chem, 2017).

Broadly, the IC50 is the concentration that inhibits the measured activity by half.

The nature of data set [1]: Selectivity index, ratio of IC50 for rat L6 cells to IC50 for chloroquine and pyrimethamine resistant Plasmodium falciparum K1. The data set is classed as toxicity. The conditions noted are these: L6 cells versus Plasmodium falciparum K1, read-out: Ratio IC50.
Data set [2] relates to Plasmodium falciparum. As to the kind of experiment: Antiplasmodial activity against chloroquine and pyrimethamine resistant Plasmodium falciparum K1 assessed as reduction in [3H]-hypoxanthine incorporation incubated for 48 hrs by liquid scintillation counting method. The data set is classed as functional, organism-based.
Another data set has as its system L6. As to the kind of experiment: Cytotoxicity in rat L6 cells assessed as reduction in cell viability incubated for 72 hrs by alamar blue dye based assay. The conditions noted are these: L6, 72 h. In general terms: Resazurin is reduced to fluorescent resorufin, in cell work by metabolically active cells.
For data set [3], the system named is Plasmodium falciparum. As to the kind of experiment: Antiplasmodial activity against chloroquine sensitive Plasmodium falciparum NF54 assessed as reduction in [3H]-hypoxanthine incorporation incubated for 48 hrs by liquid scintillation counting method. The data set is classed as functional, organism-based.

For `O=C(NCCCN(CCCCCCCCCCN(CCCNC(=O)C1CCC2(CC1)OOC1(O2)C2CC3CC(C2)CC1C3)C(=O)C1CCC2(CC1)OOC1(O2)C2CC3CC(C2)CC1C3)C(=O)C1CCC2(CC1)OOC1(O2)C2CC3CC(C2)CC1C3)C1CCC2(CC1)OOC1(O2)C2CC3CC(C2)CC1C3` (stereo unspecified), the selectivity ratio in data set [1] is > 2300. The IC50 in the data set with Plasmodium falciparum [2] is 30 nM; with L6 it was > 69000 nM; with Plasmodium falciparum [3], 88 nM.

As for `CC(C)(C)OC(=O)N(CCCCCCCCCCN(CCCNC(=O)C1CCC2(CC1)OOC1(O2)C2CC3CC(C2)CC1C3)C(=O)OC(C)(C)C)CCCNC(=O)C1CCC2(CC1)OOC1(O2)C2CC3CC(C2)CC1C3` (stereo unspecified), in data set [1], the selectivity ratio was determined as 1180. In addition, the values for the IC50 in the data set with Plasmodium falciparum [2], with L6 and in the data set on Plasmodium falciparum [3] were 60 nM, 70900 nM and 97 nM, respectively.

As to `C[C@H]1[C@H](OC(=O)CCC(=O)NCCCN(CCCCCCN(CCCNC(=O)CCC(=O)O[C@@H]2O[C@@H]3O[C@@]4(C)CC[C@H]5[C@H](C)CC[C@@H]([C@H]2C)[C@@]35OO4)C(=O)OC(C)(C)C)C(=O)OC(C)(C)C)O[C@@H]2O[C@@]3(C)CC[C@H]4[C@H](C)CC[C@@H]1[C@@]24OO3`, the selectivity ratio in data set [1] was determined as 733. The values for the IC50 in the data set on Plasmodium falciparum [2], in the data set with L6 and in the data set on Plasmodium falciparum [3] were 0.9 nM, 660 nM and 0.8 nM, respectively.

Take `O=C(O)C1CCC2(CC1)OOC1(O2)C2CC3CC(C2)CC1C3` (stereo unspecified): the selectivity ratio in data set [1] is 49600. Besides, the values for the half-maximal inhibitory concentration (IC50) with Plasmodium falciparum [2], with L6 and in the data set with Plasmodium falciparum [3] were 2.8 nM, 139000 nM and 6.5 nM, respectively.

Consider `O=C(NCCCN(CCCCN(CCCNC(=O)C1CCC2(CC1)OOC1(O2)C2CC3CC(C2)CC1C3)C(=O)C1CCC2(CC1)OOC1(O2)C2CC3CC(C2)CC1C3)C(=O)C1CCC2(CC1)OOC1(O2)C2CC3CC(C2)CC1C3)C1CCC2(CC1)OOC1(O2)C2CC3CC(C2)CC1C3` (stereo unspecified), for which the selectivity ratio in data set [1] turned out to be 8130. The values for the IC50 in the data set on Plasmodium falciparum [2], in the data set with L6 and in the data set with Plasmodium falciparum [3] were 6.2 nM, 50400 nM and 98 nM, respectively.

For the compound `C[C@H]1[C@H](OC(=O)CCC(=O)NCCCN(CCCCCCCCCCN(CCCNC(=O)CCC(=O)O[C@@H]2O[C@@H]3O[C@@]4(C)CC[C@H]5[C@H](C)CC[C@@H]([C@H]2C)[C@@]35OO4)C(=O)OC(C)(C)C)C(=O)OC(C)(C)C)O[C@@H]2O[C@@]3(C)CC[C@H]4[C@H](C)CC[C@@H]1[C@@]24OO3`, the selectivity ratio in data set [1] was 625. Moreover, the concentration for half-maximal inhibition (IC50) with Plasmodium falciparum [2] stood at 0.8 nM; in the data set on L6 it was 500 nM; with Plasmodium falciparum [3], 0.8 nM.

With `C[C@H]1[C@H](OC(=O)CCC(=O)NCCCN(CCCCCCCCN(CCCNC(=O)CCC(=O)O[C@@H]2O[C@@H]3O[C@@]4(C)CC[C@H]5[C@H](C)CC[C@@H]([C@H]2C)[C@@]35OO4)C(=O)CCC(=O)O[C@@H]2O[C@@H]3O[C@@]4(C)CC[C@H]5[C@H](C)CC[C@@H]([C@H]2C)[C@@]35OO4)C(=O)CCC(=O)O[C@@H]2O[C@@H]3O[C@@]4(C)CC[C@H]5[C@H](C)CC[C@@H]([C@H]2C)[C@@]35OO4)O[C@@H]2O[C@@]3(C)CC[C@H]4[C@H](C)CC[C@@H]1[C@@]24OO3`, the selectivity ratio in data set [1] came to 1500. The IC50 came to 0.6 nM in the data set on Plasmodium falciparum [2], 900 nM with L6 and 0.8 nM with Plasmodium falciparum [3].

Take `O=C(NCCCN(CCCCCCCN(CCCNC(=O)C1CCC2(CC1)OOC1(O2)C2CC3CC(C2)CC1C3)C(=O)C1CCC2(CC1)OOC1(O2)C2CC3CC(C2)CC1C3)C(=O)C1CCC2(CC1)OOC1(O2)C2CC3CC(C2)CC1C3)C1CCC2(CC1)OOC1(O2)C2CC3CC(C2)CC1C3` (stereo unspecified): in data set [1], the selectivity ratio is > 934. Moreover, the concentration for half-maximal inhibition (IC50) in the data set on Plasmodium falciparum [2] is 76 nM; in the data set with L6, > 71000 nM; in the data set with Plasmodium falciparum [3], 287 nM.

Consider `O=C(NCCCN(CCCCCCCCN(CCCNC(=O)C1CCC2(CC1)OOC1(O2)C2CC3CC(C2)CC1C3)C(=O)C1CCC2(CC1)OOC1(O2)C2CC3CC(C2)CC1C3)C(=O)C1CCC2(CC1)OOC1(O2)C2CC3CC(C2)CC1C3)C1CCC2(CC1)OOC1(O2)C2CC3CC(C2)CC1C3` (stereo unspecified), for which, in data set [1], the selectivity ratio stood at 5380. Also, the IC50 came out at 11 nM in the data set on Plasmodium falciparum [2], 59200 nM with L6 and 26 nM in the data set on Plasmodium falciparum [3].

On to `C[C@H]1[C@H](OC(=O)CCC(=O)NCCCN(CCCCCCCN(CCCNC(=O)CCC(=O)O[C@@H]2O[C@@H]3O[C@@]4(C)CC[C@H]5[C@H](C)CC[C@@H]([C@H]2C)[C@@]35OO4)C(=O)CCC(=O)O[C@@H]2O[C@@H]3O[C@@]4(C)CC[C@H]5[C@H](C)CC[C@@H]([C@H]2C)[C@@]35OO4)C(=O)CCC(=O)O[C@@H]2O[C@@H]3O[C@@]4(C)CC[C@H]5[C@H](C)CC[C@@H]([C@H]2C)[C@@]35OO4)O[C@@H]2O[C@@]3(C)CC[C@H]4[C@H](C)CC[C@@H]1[C@@]24OO3`, for which, in data set [1], the selectivity ratio was 2070. Also, the IC50 in the data set with Plasmodium falciparum [2] was determined as 0.6 nM; in the data set with L6, 1240 nM; in the data set with Plasmodium falciparum [3], 0.8 nM.

As for `C[C@H]1[C@H](OC(=O)CCC(=O)O)O[C@@H]2O[C@@]3(C)CC[C@H]4[C@H](C)CC[C@@H]1[C@@]24OO3` [ARTESUNATE], in data set [1], the selectivity ratio was 13300. Moreover, the IC50 amounted to 0.5 nM in the data set with Plasmodium falciparum [2], 6630 nM with L6 and 2.6 nM in the data set on Plasmodium falciparum [3].

Take `C[C@H]1[C@H](OC(=O)CCC(=O)NCCCN(CCCCCCCCN(CCCNC(=O)CCC(=O)O[C@@H]2O[C@@H]3O[C@@]4(C)CC[C@H]5[C@H](C)CC[C@@H]([C@H]2C)[C@@]35OO4)C(=O)OC(C)(C)C)C(=O)OC(C)(C)C)O[C@@H]2O[C@@]3(C)CC[C@H]4[C@H](C)CC[C@@H]1[C@@]24OO3`: the selectivity ratio in data set [1] was found to be 700. Besides, the values for the IC50 in the data set on Plasmodium falciparum [2], with L6 and in the data set on Plasmodium falciparum [3] were 0.8 nM, 560 nM and 0.7 nM, respectively.

For `CC(C)(C)OC(=O)N(CCCCCCCCN(CCCNC(=O)C1CCC2(CC1)OOC1(O2)C2CC3CC(C2)CC1C3)C(=O)OC(C)(C)C)CCCNC(=O)C1CCC2(CC1)OOC1(O2)C2CC3CC(C2)CC1C3` (stereo unspecified), the selectivity ratio in data set [1] came to 976. Besides, the IC50 in the data set on Plasmodium falciparum [2] amounted to 59 nM; with L6 it was 57600 nM; in the data set with Plasmodium falciparum [3], 79 nM.

Take `C[C@H]1[C@H](OC(=O)CCC(=O)NCCCN(CCCCCCN(CCCNC(=O)CCC(=O)O[C@@H]2O[C@@H]3O[C@@]4(C)CC[C@H]5[C@H](C)CC[C@@H]([C@H]2C)[C@@]35OO4)C(=O)CCC(=O)O[C@@H]2O[C@@H]3O[C@@]4(C)CC[C@H]5[C@H](C)CC[C@@H]([C@H]2C)[C@@]35OO4)C(=O)CCC(=O)O[C@@H]2O[C@@H]3O[C@@]4(C)CC[C@H]5[C@H](C)CC[C@@H]([C@H]2C)[C@@]35OO4)O[C@@H]2O[C@@]3(C)CC[C@H]4[C@H](C)CC[C@@H]1[C@@]24OO3`: the selectivity ratio in data set [1] was found to be 1470. Also, the IC50 with Plasmodium falciparum [2] came out at 0.6 nM; in the data set with L6 it was 880 nM; in the data set with Plasmodium falciparum [3] it was 0.6 nM.
